# Key:
# [1] = tested on: synthesis of fatty acid (rat liver homogenates); assay: Inhibitory activity of the synthesis of fatty acid (rat liver homogenates, 1-14C-acetate); assay type: biochemical, rat (SD-strain); details: vs. no addition of the inhibiting agent, 37° C., 60 min
# Protocol: Determination of the Inhibitory activity of the synthesis of fatty acid was conducted by using homogenates prepared from rat livers. Preparation of the rat liver homogenates, composition of the reaction solution for determination of inhibitory activity and method of the determination were in accordance with the method by J. Iliffe et al. described on "Biochemical Journal" 91, 369 (1964) and the method by T. Kariya et al. described on "Biochemical and Biophysical Research Communications" 80, 1022 (1978). More specifically, SD-strain male rats (6-week old) had been fasted for 2 days and then refed for 24 hours. They were killed by blood letting. The livers were then removed immediately, to which was added a 0.25M sucrose solution containing 2 mM EDTA, 5 mM nicotinamide and 1 mM 2-mercaptoethanol so that the final volume of the solution may be 4 ml relative to 1 g of the wet weight of the livers. […]
# Into a 10 ml flask containing 1.85 ml of a reaction mixture consisting of 45 mM of tris-HCl buffer (pH 7.4), 10 mM of KHCO3, 4 mM of MgCl2, 45 mM of KCl, 5 mM of K2 HPO4, 15 mM of potassium citrate, 1 mM of NADP, 2 mM of ATP, 5 mM of glucose-6-phosphate, 0.4 mM of coenzyme A, 5 mM of dithiothreitol and 0.5 ml of the enzyle solution, was blown a mixture gas (95% O2 :5% CO2). […] The radio-activity extracted into the petroleum ether layer was measured.
# Escherichia coli K 12 = assay: Antimicrobial activity; assay type: cell-based; details: K12, TSA medium containing 1% glucose, read-out: Minimum Inhibitory Concentration (MIC)
# [2] = tested on: Proteus vulgaris IFO 3045; assay: Antimicrobial activity; assay type: cell-based; details: IFO3045, TSA medium containing 1% glucose, read-out: Minimum Inhibitory Concentration (MIC)
# [3] = tested on: Pseudomonas aeruginosa IFO 3080; assay: Antimicrobial activity; assay type: cell-based; details: IFO3080, TSA medium containing 1% glucose, read-out: Minimum Inhibitory Concentration (MIC)
# [4] = tested on: Staphylococcus aureus FDA 209 P; assay: Antimicrobial activity; assay type: cell-based; details: FDA209, TSA medium containing 1% glucose, read-out: Minimum Inhibitory Concentration (MIC)
# [5] = tested on: Bacillus subtilis PCI 219; assay: Antimicrobial activity; assay type: cell-based; details: PCI219, TSA medium containing 1% glucose, read-out: Minimum Inhibitory Concentration (MIC)
# Bacillus cereus IFO 3514 = assay: Antimicrobial activity; assay type: cell-based; details: IFO3514, TSA medium containing 1% glucose, read-out: Minimum Inhibitory Concentration (MIC)
# [6] = tested on: Candida albicans IFO 0583; assay: Antimicrobial activity; assay type: cell-based; details: IFO0583, TSA medium containing 1% glucose, read-out: Minimum Inhibitory Concentration (MIC)
# Candida krusei IFO 1395 = assay: Antimicrobial activity; assay type: cell-based; details: Pichia kudriavzevii, IFO1395, TSA medium containing 1% glucose, read-out: Minimum Inhibitory Concentration (MIC)
# [7] = tested on: Candida parakrusei IFO 0640; assay: Antimicrobial activity; assay type: cell-based; details: IFO0640, TSA medium containing 1% glucose, read-out: Minimum Inhibitory Concentration (MIC)
# Candida utilis IFO 0619 = assay: Antimicrobial activity; assay type: cell-based; details: Williopsis jadinii, IFO0619, TSA medium containing 1% glucose, read-out: Minimum Inhibitory Concentration (MIC)
# [8] = tested on: Candida parapsilosis IFO 1396; assay: Antimicrobial activity; assay type: cell-based; details: Lodderomyces parapsilosis, IFO1396, TSA medium containing 1% glucose, read-out: Minimum Inhibitory Concentration (MIC)
# [9] = tested on: Candida tropicalis IFO 0006; assay: Antimicrobial activity; assay type: cell-based; details: IFO0006, TSA medium containing 1% glucose, read-out: Minimum Inhibitory Concentration (MIC)
# [10] = tested on: Saccharomyces cerevisiae IFO 0209; assay: Antimicrobial activity; assay type: cell-based; details: IFO0209, TSA medium containing 1% glucose, read-out: Minimum Inhibitory Concentration (MIC)
# [11] = tested on: Rhodotorula rubra IFO 0907; assay: Antimicrobial activity; assay type: cell-based; details: IFO0907, TSA medium containing 1% glucose, read-out: Minimum Inhibitory Concentration (MIC)
# [12] = tested on: Cryptococcus neoformans IFO 0410; assay: Antimicrobial activity; assay type: cell-based; details: IFO0410, TSA medium containing 1% glucose, read-out: Minimum Inhibitory Concentration (MIC)
# [13] = tested on: Penicillium chrysogenum IFO 4626; assay: Antimicrobial activity; assay type: cell-based; details: IFO4626, TSA medium containing 1% glucose, read-out: Minimum Inhibitory Concentration (MIC)
# [14] = tested on: Aspergillus niger IFO 4066; assay: Antimicrobial activity; assay type: cell-based; details: IFO4066, TSA medium containing 1% glucose, read-out: Minimum Inhibitory Concentration (MIC)
# [15] = tested on: Trichophyton mentagrophytes IFO 7522; assay: Antimicrobial activity; assay type: cell-based; details: IFO7522, TSA medium containing 1% glucose, read-out: Minimum Inhibitory Concentration (MIC)
# [16] = tested on: Trichophyton rubrum IFO 5467; assay: Antimicrobial activity; assay type: cell-based; details: IFO5467, TSA medium containing 1% glucose, read-out: Minimum Inhibitory Concentration (MIC)
# Pyricularia oryzae P-18 = assay: microbe, parasite or virus in culture; assay type: cell-based; details: P18, read-out: Minimum Inhibitory Concentration (MIC)
# [17] = Acute toxicity, single intraperitoneal dose in mice; details: mouse, in vivo, ip
# Solubility = assay type: physicochemical
compound,measurement,setting,value
CCC/C=C/CCC1Oc2cc[nH]c(=O)c2C=C1C (stereo not drawn) [FA-4283],inhibitory activity of the synthesis of fatty acid,[1]; 5×10^-4 M,97%
same,inhibition of the synthesis of fatty acid,[1]; 10^-3 M,98%
same,MIC,Escherichia coli K 12,> 100 µg/mL
same,MIC,[2],> 100 µg/mL
same,MIC,[3],> 100 µg/mL
same,MIC,[4],> 100 µg/mL
same,MIC,[5],> 100 µg/mL
same,MIC,Bacillus cereus IFO 3514,> 100 µg/mL
same,MIC,[6],3.13 µg/mL
same,MIC,Candida krusei IFO 1395,> 100 µg/mL
same,MIC,[7],> 100 µg/mL
same,MIC,Candida utilis IFO 0619,3.13 µg/mL
same,MIC,[8],> 100 µg/mL
same,MIC,[9],50 µg/mL
same,MIC,[10],> 100 µg/mL
same,MIC,[11],0.39 µg/mL
same,MIC,[12],25 µg/mL
same,MIC,[13],> 100 µg/mL
same,MIC,[14],> 100 µg/mL
same,MIC,[15],6.25 µg/mL
same,MIC,[16],6.25 µg/mL
same,MIC,Pyricularia oryzae P-18,3.18 µg/mL
same,LD50,[17],≥ 400 mg/kg
same,Solubility,Solubility; chloroform,readily soluble
same,Solubility,Solubility; diethyl ether,soluble
same,Solubility,Solubility; dimethyl sulfoxide,readily soluble
same,Solubility,Solubility; dimethyl-formamide,readily soluble
same,Solubility,Solubility; ethanol,readily soluble
same,Solubility,Solubility; ethyl acetate,soluble
same,Solubility,Solubility; methanol,readily soluble
same,Solubility,Solubility; n-hexane,sparingly soluble
same,Solubility,Solubility; petroleum ether,sparingly soluble
same,Solubility,Solubility; water,insoluble

# From patent US4803275A, “2-oxo-5-methyl-6-[4-heptene]-2H-pyrano[3,2-c]pyridine” (Takeda Chemical Industries, Ltd., priority 1986, dated 1989)
